Experiment [1] concerns cGAS activity in THP1 cells (IFNb as marker). Nature of the experiment: Cellular assay to measure cGAS activity (IFNb production in PMA-differentiated THP1 cells stimulated by RDG-Adenovirus-GFP). It counts as cell-based, human. As to conditions: PMA differentiated, RDG-Adenovirus-GFP 1000 MOI, IFNb AlphaLISA, overnight incubation, read-out: IC50 (μM), Cellular assay for Compounds 95-348. The gist of the method: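 PMA-differentiated THP1 cells were infected with RDG-Adenovirus-GFP at 1000 MOI for 4 h, then exposed overnight to test compounds. IFNb in the supernatant was quantified by AlphaLISA as a cGAS activity marker, and IC50 was fitted with a 4-parameter logistic equation.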

The next experiment has as its target recombinant human cGAS (Homo sapiens (Human), UniProt Q8N884). Nature of the experiment: In vitro inhibition assay of cGAS activity (cGAMP production, RapidFire mass spectrometry). The class given is biochemical. As to conditions: 10 nM recombinant human cGAS, 60 nM 75-bp dsDNA, ATP, GTP, room temperature 3 hours, read-out: IC50 (μM), In vitro inhibition assay for Compounds 95-348. In outline: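 Full-length His6-tagged human cGAS (10 nM, E. coli-expressed) was incubated 3 h at room temperature with 60 nM 75-bp dsDNA, ATP, 50 μM GTP and compound at pH 7.5 with 5 mM MgCl2. cGAMP formation was measured by RapidFire mass spectrometry, and IC50 was taken from a 4-parameter logistic fit.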

[2] abbreviates: Homo sapiens, THP-1, THP1 cells.

Where a name gives a salt, the structure may show the parent alone. Read-outs that look alike come from different tables or passages of the source.

Sequence of recombinant human cGAS (Q8N884 whole entry): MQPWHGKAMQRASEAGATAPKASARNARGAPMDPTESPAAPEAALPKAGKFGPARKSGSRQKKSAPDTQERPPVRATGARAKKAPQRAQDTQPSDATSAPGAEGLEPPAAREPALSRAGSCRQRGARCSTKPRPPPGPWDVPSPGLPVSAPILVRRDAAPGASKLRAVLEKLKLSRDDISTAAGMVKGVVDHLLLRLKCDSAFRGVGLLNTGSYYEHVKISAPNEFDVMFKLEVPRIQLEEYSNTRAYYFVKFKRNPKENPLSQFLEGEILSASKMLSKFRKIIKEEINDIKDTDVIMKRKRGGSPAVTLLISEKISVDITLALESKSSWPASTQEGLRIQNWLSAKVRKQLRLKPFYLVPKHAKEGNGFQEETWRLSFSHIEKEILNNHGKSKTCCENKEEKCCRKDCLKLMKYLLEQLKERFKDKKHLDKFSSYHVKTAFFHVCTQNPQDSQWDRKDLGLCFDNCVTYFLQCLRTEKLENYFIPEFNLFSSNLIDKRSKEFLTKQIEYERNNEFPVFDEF

In the case of `CC(=O)NCCS(=O)(=O)NC1CCc2c(-c3cn[nH]c3)c3ccc(Cl)c(Cl)c3n2C1` (stereo not drawn) [Example 119, N-(2-(N-(3,4-Dichloro-10-(1H-pyrazol-4-yl)-6,7,8,9-tetrahydropyrido[1,2-a]indol-7-yl)sulfamoyl)ethyl)acetamide], the IC50 stood at 3.66 µM in experiment [1] (setting [2]) and 0.0186 µM at recombinant human cGAS.
On to `O=C(NC1CCc2c(-c3cn[nH]c3)c3ccc(Cl)c(Cl)c3n2C1)C1(O)CCOCC1` (stereo not drawn) [Example 190, N-[3,4-Dichloro-10-(1H-pyrazol-4-yl)-6,7,8,9-tetrahydropyrido[1,2-a]indol-7-yl]-4-hydroxy-tetrahydropyran-4-carboxamide], for which the IC50 in experiment [1] (setting [2]) was 2.19 µM; at recombinant human cGAS it was 0.0361 µM.
As for `O=C(Nc1cc(Cl)c(Cl)c2[nH]c(CCO)c(-c3cn[nH]c3)c12)C(F)F` [Example 225, N-[6,7-Dichloro-2-(2-hydroxyethyl)-3-(1H-pyrazol-4-yl)-1H-indol-4-yl]-2,2-difluoro-acetamide], the IC50 in experiment [1] (setting [2]) was found to be 0.23 µM; at recombinant human cGAS, 0.0121 µM.
With `O[C@@H]1C[C@H](Oc2cc(Cl)c(Cl)c3[nH]cc(-c4cn[nH]c4)c23)[C@@H](O)C1` (single isomer, unassigned) [Example 270, 4-[[6,7-Dichloro-3-(1H-pyrazol-4-yl)-1H-indol-4-yl]oxy]cyclopentane-1,3-diol], the IC50 in experiment [1] (THP1 cells) is 0.635 µM; on recombinant human cGAS it was 0.0207 µM.
For `N#CCOc1cc(Cl)c(Cl)c2c1c(-c1cn[nH]c1)c1n2CCN(C(=O)c2nccnc2C(=O)N2CCOCC2)C1` [Example 296, 2-((6,7-Dichloro-2-(3-(morpholine-4-carbonyl)pyrazine-2-carbonyl)-10-(1H-pyrazol-4-yl)-1,2,3,4-tetrahydropyrazino[1,2-a]indol-9-yl)oxy)acetonitrile], the values for the 50% inhibitory concentration (IC50) (in experiment [1] (setting [2]); at recombinant human cGAS) were 4.78 µM and 0.061 µM, respectively.
On to `CN1CCO[C@@H](C(=O)N2CCn3c(c(-c4cn[nH]c4)c4c(OCC#N)cc(Cl)c(Cl)c43)C2)C1` [Example 281, (R)-2-((6,7-Dichloro-2-(4-methylmorpholine-2-carbonyl)-10-(1H-pyrazol-4-yl)-1,2,3,4-tetrahydropyrazino[1,2-a]indol-9-yl)oxy)acetonitrile], for which the concentration for half-maximal inhibition (IC50) in experiment [1] (setting [2]) is 1 µM; on recombinant human cGAS it was 0.0089 µM.
`CC(=O)NCCn1cc(-c2cn[nH]c2)c2c(OCC#N)cc(Cl)c(Cl)c21` [Example 136, N-[2-[6,7-Dichloro-4-(cyanomethoxy)-3-(1H-pyrazol-4-yl)indol-1-yl]ethyl]acetamide]: the concentration for half-maximal inhibition (IC50) in experiment [1] (setting [2]) came out at 3.42 µM; on recombinant human cGAS it was 0.0764 µM.
On to `N#CCOc1cc(Cl)c(Cl)c2c1c(-c1cn[nH]c1)c1n2CCN(CCO)C1=O` [Example 142, 2-[[6,7-Dichloro-2-(2-hydroxyethyl)-1-oxo-10-(1H-pyrazol-4-yl)-3,4-dihydropyrazino[1,2-a]indol-9-yl]oxy]acetonitrile], for which the values for the IC50 (in experiment [1] (setting [2]); on recombinant human cGAS) were 3.14 µM and 0.0127 µM, respectively.
As for `CC(=O)N1CCn2c(c(-c3cn[nH]c3)c3c(NCC#N)cc(Cl)c(Cl)c32)C1` [Example 254, 2-[[2-Acetyl-6,7-dichloro-10-(1H-pyrazol-4-yl)-3,4-dihydro-1H-pyrazino[1,2-a]indol-9-yl]amino]acetonitrile], the IC50 in experiment [1] (setting [2]) is 0.938 µM; at recombinant human cGAS it was 0.03 µM.
For the compound `FC(F)(F)c1nnc(-c2[nH]c3c(Cl)c(Cl)ccc3c2-c2cn[nH]c2)o1` [Example 128, 2-(6,7-Dichloro-3-(1H-pyrazol-4-yl)-1H-indol-2-yl)-5-(trifluoromethyl)-1,3,4-oxadiazole], the IC50 in experiment [1] (setting [2]) was above 10 µM; on recombinant human cGAS, 0.0691 µM.
For `N#CCNc1cc(Cl)c(Cl)c2c1c(-c1cn[nH]c1)c1n2CCN(CCO)C1=O` [Example 143, 2-[[6,7-Dichloro-2-(2-hydroxyethyl)-1-oxo-10-(1H-pyrazol-4-yl)-3,4-dihydropyrazino[1,2-a]indol-9-yl]amino]acetonitrile], in that order: above 10 µM and 0.0419 µM.
Consider `O=C1COCCN1CCC(=O)N1CCn2c(c(-c3cn[nH]c3)c3ccc(Cl)c(Cl)c32)C1` [Example 304, 4-(3-(6,7-Dichloro-10-(1H-pyrazol-4-yl)-3,4-dihydropyrazino[1,2-a]indol-2(1H)-yl)-3-oxopropyl)morpholin-3-one], for which the concentration for half-maximal inhibition (IC50) is 8.47 µM in experiment [1] (setting [2]) and 0.0351 µM on recombinant human cGAS.
In the case of `CN(C)C(=O)NCC(=O)N1CCn2c(c(-c3cn[nH]c3)c3ccc(Cl)c(Cl)c32)C1` [Example 182, 3-[2-[6,7-Dichloro-10-(1H-pyrazol-4-yl)-3,4-dihydro-1H-pyrazino[1,2-a]indol-2-yl]-2-oxo-ethyl]-1,1-dimethyl-urea], the figures for the 50% inhibitory concentration (IC50) (in experiment [1] (setting [2]); on recombinant human cGAS) were above 10 µM and 0.0416 µM, respectively.
Turning to `OCCCNc1cc(Cl)c(Cl)c2[nH]nc(-c3cn[nH]c3)c12` [Example 250, 3-[[6,7-Dichloro-3-(1H-pyrazol-4-yl)-1H-indazol-4-yl]amino]propan-1-ol], the IC50 in experiment [1] (setting [2]) was 0.376 µM; at recombinant human cGAS, 0.0052 µM.
In the case of `O=C(Nc1cc(Cl)c(Cl)c2[nH]nc(-c3cn[nH]c3)c12)C(F)F` [Example 337, N-(6,7-Dichloro-3-(1H-pyrazol-4-yl)-1H-indazol-4-yl)-2,2-difluoroacetamide], the figures for the IC50 (in experiment [1] (setting [2]); on recombinant human cGAS) were 0.281 µM and 0.0124 µM, respectively.
For `O=C(CO)NCc1[nH]c2c(Cl)c(Cl)cc(NC(=O)CO)c2c1-c1cn[nH]c1` [Example 221, N-[[6,7-Dichloro-4-[(2-hydroxyacetyl)amino]-3-(1H-pyrazol-4-yl)-1H-indol-2-yl]methyl]-2-hydroxy-acetamide], in that order: above 10 µM and 0.0238 µM.
In the case of `CC(=O)Nc1cc(Cl)cc2c1c(-c1cn[nH]c1)cn2-c1cn(CCO)nn1` [Example 201, N-[6-Chloro-1-[1-(2-hydroxyethyl)triazol-4-yl]-3-(1H-pyrazol-4-yl)indol-4-yl]acetamide], the figures for the IC50 (in experiment [1] (setting [2]); on recombinant human cGAS) were 4.23 µM and 0.0777 µM, respectively.
Turning to `CCC(=O)NCc1[nH]c2c(Cl)c(Cl)ccc2c1-c1cn[nH]c1` [Example 163, N-[[6,7-Dichloro-3-(1H-pyrazol-4-yl)-1H-indol-2-yl]methyl]propanamide], the concentration for half-maximal inhibition (IC50) in experiment [1] (setting [2]) was 2.09 µM; on recombinant human cGAS it was 0.076 µM.
Take `O=S(=O)(CCn1cnnn1)NC1CCc2c(-c3cn[nH]c3)c3ccc(Cl)c(Cl)c3n2C1` (stereo not drawn) [Example 120, N-(3,4-Dichloro-10-(1H-pyrazol-4-yl)-6,7,8,9-tetrahydropyrido[1,2-a]indol-7-yl)-2-(1H-tetrazol-1-yl)ethane-1-sulfonamide]: the IC50 in experiment [1] (setting [2]) was 2.27 µM; at recombinant human cGAS, 0.0154 µM.
For the compound `CN1CCn2c(c(-c3cn[nH]c3)c3c(OCCCO)cc(Cl)c(Cl)c32)C1=O` [Example 339, 6,7-Dichloro-9-(3-hydroxypropoxy)-2-methyl-10-(1H-pyrazol-4-yl)-3,4-dihydropyrazino[1,2-a]indol-1(2H)-one], the 50% inhibitory concentration (IC50) in experiment [1] (setting [2]) was 0.426 µM; at recombinant human cGAS it was 0.00789 µM.
For `CNNc1cc(Cl)c(Cl)c2[nH]cc(-c3cn[nH]c3)c12` [Example 215, 1-[6,7-Dichloro-3-(1H-pyrazol-4-yl)-1H-indol-4-yl]-2-methyl-hydrazine hydrochloride], in that order: 2.59 µM and 0.0864 µM.
In the case of `OCCCNc1cc(Cl)c(Cl)c2c1c(-c1cn[nH]c1)cn2-c1cn(CCO)nn1` [Example 198, 3-[[6,7-Dichloro-1-[1-(2-hydroxyethyl)triazol-4-yl]-3-(1H-pyrazol-4-yl)indol-4-yl]amino]propan-1-ol], the values for the IC50 (in experiment [1] (setting [2]); on recombinant human cGAS) were 0.395 µM and 0.011 µM, respectively.
As to `CC(=O)N1CCOC(CC(=O)N2CCn3c(c(-c4cn[nH]c4)c4ccc(Cl)c(Cl)c43)C2)C1` (single isomer, unassigned) [Example 265, 2-(4-acetylmorpholin-2-yl)-1-(6,7-dichloro-10-(1H-pyrazol-4-yl)-3,4-dihydropyrazino[1,2-a]indol-2(1H)-yl)ethan-1-one], the 50% inhibitory concentration (IC50) in experiment [1] (THP1 cells) was above 10 µM; on recombinant human cGAS, 0.0511 µM.
Regarding `O=C(CN1C(=O)CSC1=O)N1CCn2c(c(-c3cn[nH]c3)c3ccc(Cl)c(Cl)c32)C1` [Example 307, 3-(2-(6,7-Dichloro-10-(1H-pyrazol-4-yl)-3,4-dihydropyrazino[1,2-a]indol-2(1H)-yl)-2-oxoethyl)thiazolidine-2,4-dione], the figures for the IC50 (in experiment [1] (setting [2]); at recombinant human cGAS) were above 10 µM and 0.0398 µM, respectively.
Consider `N#CCOc1cc(Cl)c(Cl)c2c1c(-c1cn[nH]c1)c1n2CC[C@@H]1NC(=O)CO` [Example 344, (S)—N-(5,6-Dichloro-8-(cyanomethoxy)-9-(1H-pyrazol-4-yl)-2,3-dihydro-1H-pyrrolo[1,2-a]indol-1-yl)-2-hydroxyacetamide], for which the IC50 in experiment [1] (setting [2]) was 0.902 µM; on recombinant human cGAS, 0.00338 µM.
Consider `COc1cc2c(-c3cn[nH]c3)cn(-c3cccnn3)c2cc1Cl` [Example 341, 6-Chloro-5-methoxy-3-(1H-pyrazol-4-yl)-1-(pyridazin-3-yl)-1H-indole], for which the IC50 in experiment [1] (setting [2]) amounted to 0.8 µM; on recombinant human cGAS, 0.0276 µM.
As for `O=C(O)Cn1cc(-n2cc(-c3cn[nH]c3)c3ccc(Cl)c(Cl)c32)nn1` [Example 212, 2-[4-[6,7-Dichloro-3-(1H-pyrazol-4-yl)indol-1-yl]triazol-1-yl]acetic acid], the IC50 in experiment [1] (setting [2]) was above 10 µM; at recombinant human cGAS, 0.0125 µM.

As a reminder, the IC50 is the concentration at which inhibition is half-maximal.

The record behind these values is patent US20230391786A1, “cGAS INHIBITORS” (Eli Lilly and Company, priority 2022, published 2023).
